Values quoted from earlier work in US20260240758A1, “INJECTABLE PHENYLEPHRINE COMPOSITIONS” (Hikma Pharmaceuticals USA Inc., priority 2022, published 2026).

Conditions: phenylephrine HCl 400 μg/ml and 200 μg/ml, PVC bags, 60 days at room temperature

phenylephrine degraded: 4-5%
SMILES: CNC[C@H](O)c1cccc(O)c1 [phenylephrine]
